Laboratory results: patent US20240009148A1, “Cystamine Formulations and Uses Thereof” (Birch Therapeutics, Inc., priority 2020, published 2024)
Counter-ions that a name gives are not always drawn. Like-named read-outs stand apart in the source and are kept apart here. Values belong to the compound of their own block, whether it stands above or below them.

Columns and labels:
[1] = parameters: species or system male Sprague Dawley rats; settings: rat, in vivo
Experimental: Cystamine dihydrochloride and cysteamine hydrochloride were administered to rats 1) orally on an empty stomach; 2) orally on full stomach; and 3) intra-cecum to evaluate the pharmacokinetics of cystamine and to compare it to cysteamine pharmacokinetics. Oral administration (PO) simulated immediate-release (IR) formulations. Intra-cecum (IC) administration simulated large intestine release (LIR) formulations, which provides a time to Cmax of more than 4 hours after administration.
Animal studies were performed by Absorption Systems. Test articles: Cysteamine hydrochloride (CH), 98%; Cystamine dihydrochloride (HCCH), 95-96% (both obtained from Sigma Aldrich). CH has one cysteamine base, while HCCH, upon disulfide bond reduction, yields two cysteamine molecules. CH and HCCH were administered at a dose selected to deliver 30 mg/kg of cysteamine base (44.2 mg/kg and 43.8 mg/kg respectively), so that each rat received same number of cysteamine molecules. Test articles (dry powder) were dissolved in 3 mL for PO and in 0.5 mL for IC of room temperature water no more than 15 minutes before dosing.
Five (5) male Sprague Dawley rats ˜300-350 gram (Envigo) were used per group, with 6 groups total.
All animals were healthy at the start of the trial and assigned randomly to the study groups by weight. Fed state animals had food and water supplied ad libitum. Fasted state animals had food removed at least 12 hours prior to dosing and food was returned 4 hours post dosing; water was supplied ad libitum. Oral gavage needle and syringe were used for oral administration. For IC dose administration, the animals were anesthetized with isoflurane regulated at ˜1-3% in oxygen. The abdominal cavity was surgically opened and the proximal large intestine was exposed. A test article was administered directly into the proximal large intestine with a 1 cc disposable syringe equipped with a 25 g hypodermic needle. The surgical site was then closed with staples or suture.
Blood was sampled from jugular vein at the following time points: pre-dose, 15, 30, 60, 120, 180, and 240 minutes post dose. Blood samples were collected into tubes containing TBD anticoagulant, then centrifuged at a temperature of 4° C., at 3,000×g, for 5 minutes. Once prepared, plasma samples were snap frozen. Plasma samples were stored at −80° C. until analysis.
Sample analysis was performed by Integrated Analytical Solutions. To measure plasma cysteamine, to 10 uL of a plasma sample or standard was added 10 uL of internal standard with reduction solution: 5 ug/mL d4-cysteamine (CDN Isotopes), 10 mM TCEP in water, prepared fresh, and mixed thoroughly. The mixture was incubated at 37° C. for 60 minutes, then 40 uL of 5% trichloroacetic acid was added and the solution was mixed thoroughly. Samples were then centrifuged at 6100 g for 30 minutes. Next, 20 uL of each supernatant were transferred to an autosampler plate and sealed with a cap mat. The concentration of cysteamine was measured by use of LC/MS/MS tandem mass spectroscopy. Column Atlantis T3 2.1×30mm, 3um was used at a room temperature; mobile phase A: 0.1% heptafluorobutyric acid in water; mobile phase B: 0.2% formic acid in acetonitrile; injection volume: 3 uL. (API 4000 LC/MS/MS; Applied Biosystems). The following MS parameters were used—HPLC system: Shimadzu VP Series 10 System; MS/MS: Applied Biosystems/MDS SCIEX API 4000; software: Analyst v1.6.3; isolation method: Electrospray, Positive Ion; source temperature: TurbolonSpray (ESI) at 400°. Cysteamine concentrations were calculated with a calibration curve that was prepared by spiking plasma with buffered cysteamine solutions, and quality control samples were analyzed with each batch.

[2] = system: cystinosis fibroblast cell culture; settings: compared with cysteamine (Thoene 1976); cited from earlier work

Cmax of plasma cysteamine, IC compared to PO fasted [1]: higher
Tmax (time to Cmax) of plasma cysteamine [1]: 15 min
Tmax (time to Cmax) of plasma cysteamine ([1]; po): 15 min
SMILES: NCCS [CH, Cysteamine hydrochloride, reference compound]

SMILES: NCCSSCCN [Cystamine]
Decrease of lysosomal cystine [2]: comparably to cysteamine

AUC for dosing into the large intestine lower than AUC for oral dosing ([1]; male, Sprague Dawley, po): 25%
Cmax for IC dosing lower than Cmax after oral administration ([1]; male, Sprague Dawley, po): more than 50%
Absorption pattern after dosing to the large intestine [1]: not rapid, but rather sustained
Cmax of plasma cysteamine compared to CH ([1]; po): higher Cmax
SMILES: Cl.Cl.NCCSSCCN [HCCH, Cystamine dihydrochloride]
